Common to all, as to assay: relative viability (nuclei count vs DMSO), 5 days (fraction); higher = more cells survive
Compound in the experiment “XMD8-85 + Crizotinib”: CN1CCN(CC1)C2=CC(=C(C=C2)NC3=NC=C4C(=N3)N(C5=CC=CC=C5C(=O)N4C)C)OC [XMD8-85] + C[C@@H](Oc1cc(-c2cnn(C3CCNCC3)c2)cnc1N)c1c(Cl)ccc(F)c1Cl [Crizotinib] (partner 1 µM)
A digest of the protocol: (§1)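 Medians of duplicate plates are given as relative viability. That measure is the nuclei count in treated wells divided by the count in vehicle wells. Counts were taken on 4× images of lung cancer cell lines in 1536-well plates, 5 days after pin-tool dosing the day after seeding with one drug alone or a fixed anchor-drug dose plus five library-drug doses (not always all listed) in √10 steps.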

Compound in the experiment “XMD8-85 + Palbociclib”: CN1CCN(CC1)C2=CC(=C(C=C2)NC3=NC=C4C(=N3)N(C5=CC=CC=C5C(=O)N4C)C)OC [XMD8-85] + CC(=O)c1c(C)c2cnc(Nc3ccc(N4CCNCC4)cn3)nc2n(C2CCCC2)c1=O [Palbociclib] (partner 0.5 µM)
A digest of the protocol:
as §1

Compound in the experiment “XMD8-85 + Luminespib”: CN1CCN(CC1)C2=CC(=C(C=C2)NC3=NC=C4C(=N3)N(C5=CC=CC=C5C(=O)N4C)C)OC [XMD8-85] + CCNC(=O)c1noc(-c2cc(C(C)C)c(O)cc2O)c1-c1ccc(CN2CCOCC2)cc1 [Luminespib] (partner 0.01 µM)
A digest of the protocol:
as §1

Compound in the experiment “4EGI-1 + Linsitinib”: O=C(O)C(Cc1ccccc1[N+](=O)[O-])=NNc1nc(-c2ccc(Cl)c(Cl)c2)cs1 (mixture of isomers) [4EGI-1] + C[C@]1(O)C[C@@H](c2nc(-c3ccc4ccc(-c5ccccc5)nc4c3)c3c(N)nccn32)C1 [Linsitinib] (partner 1 µM)
A digest of the protocol: as §1

Compound in the experiment “XMD8-85 + Pemetrexed”: CN1CCN(CC1)C2=CC(=C(C=C2)NC3=NC=C4C(=N3)N(C5=CC=CC=C5C(=O)N4C)C)OC [XMD8-85] + Nc1nc2[nH]cc(CCc3ccc(C(=O)N[C@@H](CCC(=O)O)C(=O)O)cc3)c2c(=O)[nH]1 [Pemetrexed] (partner 0.2 µM)
A digest of the protocol: as §1

NCI-H1792: the relative viability with XMD8-85 + Crizotinib (first compound 0.08 µM) turned out to be 0.883; with XMD8-85 + Crizotinib (first compound 0.253 µM), 0.822; with XMD8-85 + Crizotinib (first compound 2.53 µM), 0.852; in the experiment with XMD8-85 + Crizotinib (first compound 8 µM) it was 0.905; with XMD8-85 + Palbociclib (first compound 0.253 µM), 0.642; with XMD8-85 + Palbociclib (first compound 2.53 µM) it was 0.835. Also, the relative viability is 0.551 with XMD8-85 + Palbociclib (first compound 8 µM); 0.504 in the experiment with XMD8-85 + Luminespib (first compound 0.253 µM); 0.371 with XMD8-85 + Luminespib (first compound 2.53 µM); 0.35 in the experiment with XMD8-85 + Luminespib (first compound 8 µM); 0.613 with 4EGI-1 + Linsitinib (first compound 0.5 µM); 0.444 in the experiment with 4EGI-1 + Linsitinib (first compound 1.581 µM). The relative viability worked out at 0.48 with 4EGI-1 + Linsitinib (first compound 5 µM); 0.441 with 4EGI-1 + Linsitinib (first compound 15.81 µM); 0.472 with 4EGI-1 + Linsitinib (first compound 50 µM); 0.439 with XMD8-85 + Pemetrexed (first compound 0.253 µM); 0.889 with XMD8-85 + Pemetrexed (first compound 0.8 µM); 0.924 with XMD8-85 + Pemetrexed (first compound 2.53 µM). For the same cell line, in the experiment with XMD8-85 + Pemetrexed (first compound 8 µM), the relative viability came to 0.818.

(Values after the supplement of paper PMC10307832.)
